Ends that are not written are not given here. A value given as a limit tells only on which side of the number the result lay.

One assay has as its system PBMC from chronic Chagas disease subjects. Put plainly: IFN-γ ELISPOT with supertype peptide pools, single peptides or lysate in non-HLA-typed G0 subjects. The class given is cell-based, human. Particulars: single peptides 10 µg/ml, representative results from single individuals, media alone subtracted (media alone 13±10). The protocol: The number of peptide-specific IFN-γ and IL-2-secreting T cells was determined by ex vivo ELISPOT using commercial kits (Becton & Dickinson, San Diego, CA). Cryopreserved PBMC from chronic chagasic subjects were seeded in triplicate wells at a concentration of 4×10^5/well, and stimulated with individual peptides (10 µg/ml), peptide pools (7–13 peptides per pool, 5 µg/ml/peptide) comprising HLA A01 (2 pools), A02 (2 pools), A03 (2 pools), A24 (2 pools), B07 (1 pool) or B44 (1 pool)-binding peptides or T. cruzi lysate (10 µg/ml) for 16–20 hr at 37°C and 5% CO2. For controls, cells were incubated with complete RPMI, A2-restricted HIV Pol (amino acids 510–518: […]), A2-restricted flu matrix 1 (amino acids 58–66: […]) or 50 ng/ml […] and 500 nM ionomicin (Sigma). Spot forming cells (SFCs) were automatically enumerated using ImmunoSpot analyzer (CTL).
The mean number of SFCs in triplicate wells was obtained for each condition, and the number of specific IFN-γ and IL-2-secreting T cells (net SFCs), was calculated by subtracting the value of the wells containing media alone from the peptide/mitogen-stimulated spot count. Responses were considered significant if a minimum of 25 SFCs/1×10^6 PBMC were present per well, and additionally, this number was at least twice the value of wells with media alone.
The number of annotated T. cruzi genes containing supertype-binding epitopes was then used to prioritize peptides to be assessed for recognition by CD8^+ T cells from a group of non-HLA-typed chagasic subjects (Table 2). IFN-γ ELISPOT responses to peptide pools containing a total of ninety-six epitopes representing HLA A01 (18 epitopes), HLA A02 (20 epitopes), HLA A03 (20 epitopes), HLA A24 (14 epitopes), HLA B07 (11 epitopes) and HLA-B44 (13 epitopes) supertypes were evaluated in 25 chronic Chagas disease subjects without clinical and radiological evidence of heart disease (G0 status) regardless of their HLA type. […] Four subjects had positive responses to more than one supertype (3 of these subjects recognized both HLA-A02 and HLA-A03-binding peptides, Fig. 1). It is noteworthy that responses to HLA-A02 and HLA03 supertype-restricted epitopes covered 77% of the total responses detected, consistent with the high worldwide frequency of these alleles.
For the sequence NVMLVTLPV, the “No. Net IFN-γ SFCs/10^6 PBMC” value is 18 SFCs/10^6 PBMC. On the same count and under the same terms, the value for HNFTLVASV was 15 SFCs/10^6 PBMC; that for FTLVATVSI was 70 SFCs/10^6 PBMC; that for FTSAVLLLL was 25 SFCs/10^6 PBMC. For LWLTDNTHI, the “No. Net IFN-γ SFCs/10^6 PBMC” value amounted to 463 SFCs/10^6 PBMC. As to MLVTLPVYS, the “No. Net IFN-γ SFCs/10^6 PBMC” value is on record as 15 SFCs/10^6 PBMC.

For the sequence LLLLVVMMCC, the “No. Net IFN-γ SFCs/10^6 PBMC” value stood at 18 SFCs/10^6 PBMC. LLLGLWGFA: the “No. Net IFN-γ SFCs/10^6 PBMC” value was determined as 30 SFCs/10^6 PBMC.

Take HLFYSAVLL: the “No. Net IFN-γ SFCs/10^6 PBMC” value is 40 SFCs/10^6 PBMC. As for AVAEAQCKK, the “No. Net IFN-γ SFCs/10^6 PBMC” value was 18 SFCs/10^6 PBMC. Still for that read-out and setting: for ITATIEGRK the value was 50 SFCs/10^6 PBMC; for TSAVLLLLVV, 18 SFCs/10^6 PBMC.

For the sequence MLSRVAAVK, the “No. Net IFN-γ SFCs/10^6 PBMC” value is reported as 38 SFCs/10^6 PBMC.

Consider IYMLVGKYS, for which the “No. Net IFN-γ SFCs/10^6 PBMC” value is given as 65 SFCs/10^6 PBMC.

In the case of LVTLPVYSK, the “No. Net IFN-γ SFCs/10^6 PBMC” value worked out at 15 SFCs/10^6 PBMC. For the sequence VALMLQGNK, the “No. Net IFN-γ SFCs/10^6 PBMC” value came out at 18 SFCs/10^6 PBMC. In the case of FTLVASVTI, the “No. Net IFN-γ SFCs/10^6 PBMC” value came to 35 SFCs/10^6 PBMC. On the same count and under the same terms, for FVSPSLVSA the value was 18 SFCs/10^6 PBMC. Same read-out and setting: for VTDNNRSFY the value was 30 SFCs/10^6 PBMC; for RVLLLLLLGL, 20 SFCs/10^6 PBMC; for FQGAWAEWPV, 32 SFCs/10^6 PBMC. Consider FLYNRPLNS, for which the “No. Net IFN-γ SFCs/10^6 PBMC” value came out at 18 SFCs/10^6 PBMC.

Another assay deals with PBMC from HLA-A2.1+ patients with chronic Chagas disease. Kind of assay: IFN-γ ELISPOT with individual HLA-A0201-binding ts peptides in HLA-A2.1+ subjects. It counts as cell-based, human. To be noted: HLA-A2.1+ patients group G0, peptide 10 µg/ml, 4×10^5 PBMC/well, 16–20 hr, positive: >=25 SFCs/10^6 PBMC and at least twice media alone.
In the case of FTNNKFTLS [Ts 68], the “No. of positive responders/total no. of subjects assayed (%), G0” value is reported as 0/6.

The same assay, now with this note: HLA-A2.1+ patients group G1, peptide 10 µg/ml, 16–20 hr.
Turning to FTNNKFTLS [Ts 68], the “No. of positive responders/total no. of subjects assayed (%), G1” value is 0/5.

Staying with this assay, now noted: HLA-A2.1+ patients group G2/G3, peptide 10 µg/ml, 16–20 hr.
In the case of FTNNKFTLS [Ts 68], the “No. of positive responders/total no. of subjects assayed (%), G2/G3” value is recorded as 0/8.

Another assay deals with HLA-A2.1 molecule (Homo sapiens, UniProt P04439, D140Y/D185E/D98H/E176V/E277Q/G131W/G231S/I119V/I121R/I166T/I218V/L300P/L318F/N151K/N90K/P208A/P217A/Q86G/Q94H/R138H/R169H/T345S). Kind of assay: HLA-A class I binding assay (competitive inhibition of radiolabeled probe peptide). Particulars: competitive inhibition of binding of radiolabeled standard probe peptide to purified detergent-solubilized HLA-A2.1.
The sequence FANYNFTLL [Ts 51] came in with an IC50 of 1.5 µM.

As to ELLRPTTLV [Ts 52], the IC50 stood at 2.41 µM. Still for that read-out and setting: for RVSRPTTVV [Ts 58] the value was 2.49 µM; for FVDYNFSLV [Ts 47], 0.0011 µM; for FLSHNFTLVF [Ts 27], 0.00061 µM. For the sequence LLGLWGTAAL [Ts 13], the IC50 is 0.499 µM.

The sequence FVNYNFTLV [Ts 45] displayed an IC50 of 0.00025 µM. On the same count and under the same terms, the value for LLGLWVFAAL [Ts 2] was 0.036 µM; that for FVNHRFTLV [Ts 37] was 0.304 µM.

Consider FANHKFTLV [Ts 38], for which the IC50 came out at 0.148 µM.

For GLLPSLLLLL [Ts 3], the IC50 turned out to be 0.0031 µM. In turn, FANYNFTLV [Ts 48] gave an IC50 of 0.00047 µM. The same measure, in the same setting: for FTNNKFTLS [Ts 68] the value was above 50 µM; for FANYKFTLV [Ts 44], 0.049 µM; for RLLPSLLLLL [Ts 4], 0.0008 µM. Still for that read-out and setting: for SLSHYFTLVF [Ts 26] the value was 0.0016 µM; for FANNKFTLV [Ts 43], 0.116 µM.

On to FVSCDFTIV [Ts 35], for which the IC50 stood at 0.03 µM. Same read-out and setting: the value for IANYNFTLV [Ts 56] was 29.6 µM; that for FANHDFTLV [Ts 34] was 0.101 µM; that for FLSHDFTLV [Ts 24] was 0.00046 µM.

In turn, LLGLWGLATA [Ts 6] displayed an IC50 of 0.024 µM.

What is called IC50 is the concentration that inhibits the measured activity by half. The low end stands for higher potency, the high end for lower potency.

Source of the values: publication PMC2565697, “HLA Class I-T Cell Epitopes from trans-Sialidase Proteins Reveal Functionally Distinct Subsets of CD8^+ T Cells in Chronic Chagas Disease” (PLoS Neglected Tropical Diseases, 2008).
